Test system: medial femoral condyle cartilage of goat stifle joint
Test: Modified Mankin score of femoral cartilage after intra-articular injection in goats (Example 34)
Assay type: in vivo
Description: A lightly crosslinked hydrogel prepared by reaction of vinyl-sulfone-modified hyaluronic acid with PEG-dithiol (HA-VS-PEG-(SH)2), containing the corticosteroid, triamcinolone acetonide, was injected into the intraarticular space of the stifle joint of female goats. Morphological, synovial fluid and histological examinations were conducted to evaluate local and systemic effects of such injections. Details of the study are provided below.
All test materials were stored at room temperature prior to use. For each Test or Control Material, a 1.5 ml dosage was prepared for each individual intra-articular injection.
A standard technique was used to inject each stifle joint, A 2-inch by 21 gauge sized sterile needle was introduced into the intra-articular space via an anteromedial approach. The lateral intercondylar notch wall of the medial femoral condyle was felt and the needle backed slightly off. 1.5 ml of the appropriate Test Material was injected into the right joint. The injection needle was removed and pressure was maintained on the injection site. The injected stifle joint was then cycled 20-times through a full range of motion. Immediately following this, the left stifle joint was cleansed with chlorohexidine scrub alternating with 70% isopropyl alcohol three times and painted with iodine solution and 1.5 ml of the Control Material was injected into the left stifle joint in a similar manner as described above for the right stifle. The injection needle was removed and pressure maintained on the injection site. The injected stifle joint was then cycled 20-times through a full range of motion.
Necropsy: Animals were humanely sacrificed at either 14 days or 28 days day post initial injection with an intravenous injection consisting of Diazepam 0.22 mg/kg and Ketamine 10 mg/kg for induction of general anesthesia. Following this, the anesthetized animals were given an IV overdose of concentrated potassium chloride (KCl) until the cardiac arrest had been verified.
Immediately after dissection and following gross joint surface evaluation a sagital section of each joint was cut through the medial femoral condyle (MFC). These sections were placed individually in 10% neutral buffered formalin. The fixed tissue was shipped by overnight carrier to Premier Laboratories for processing. The right and left MFC sections were processed using standard histological techniques and stained with hematoxylin and eosin (H&E) and Safranin-O (SAF-O) with a fast green counter stain. The slides from the MFC sections were evaluated by the Mankin Scoring System for osteoarthritis as described in Table 12.

[1] = 28 day group, animal died prematurely (3837: 24 days, 3588: 19 days on study), not included in averages

Compound | Cells (modified Mankin), MEAN (female, goat, in vivo, 14 days) | Safranin-O Stain (modified Mankin), MEAN (female, goat, in vivo, 14 days) | Structure (modified Mankin), MEAN (female, goat, in vivo, 14 days) | Tide Mark Integrity (modified Mankin) (female, goat, in vivo, 14 days) | Tide Mark Integrity (modified Mankin), MEAN (female, goat, in vivo, 14 days) | Total Mankin Score, MEAN (female, goat, in vivo, 14 days) | Cells (modified Mankin), MEAN (female, goat, in vivo, 28 days) | Safranin-O Stain (modified Mankin), MEAN (female, goat, in vivo, 28 days) | Structure (modified Mankin), MEAN (female, goat, in vivo, 28 days) | Tide Mark Integrity (modified Mankin) (female, goat, in vivo, 28 days) | Tide Mark Integrity (modified Mankin), MEAN (female, goat, in vivo, 28 days) | Total Mankin Score, MEAN (female, goat, in vivo, 28 days) | Cells (modified Mankin) [1] | Safranin-O Stain (modified Mankin) [1] | Structure (modified Mankin) [1] | Tide Mark Integrity (modified Mankin) [1] | Total Mankin Score [1] | Safranin-O Stain (modified Mankin) (female, goat, in vivo, 28 days)
CC1(C)O[C@@H]2C[C@H]3[C@@H]4CCC5=CC(=O)C=C[C@]5(C)[C@@]4(F)[C@@H](O)C[C@]3(C)[C@]2(C(=O)CO)O1 [Triamcinolone Acetonide 2 mg/ml, triamcinolone acetonide] | 0.7 | 3.0 | 2.7 | 0.0 | 0.0 | 6.3 | 2.3 | 3.3 | 2.7 | 0.0 | 0.0 | 8.3 | – | – | – | – | – | –
CC1(C)O[C@@H]2C[C@H]3[C@@H]4CCC5=CC(=O)C=C[C@]5(C)[C@@]4(F)[C@@H](O)C[C@]3(C)[C@]2(C(=O)CO)O1 [Triamcinolone Acetonide 8 mg/ml, triamcinolone acetonide] | 0.3 | 3.3 | 1.7 | 0.0 | 0.0 | 5.3 | 2.0 | 4.0 | 3.0 | 0.0 | 0.0 | 9.0 | 3.0 | 3.0 | 4.0 | 0.0 | 10.0 | 4.0

Reference: patent US9192678B2, “Modified hyaluronic acid polymer compositions and related methods” (priority 2009, dated 2015)
